Results as given in US9919060B2 (University Court of the University of Dundee, priority 2009, dated 2018).
Entries after “also recorded” stand apart in the source; their conditions may differ.

Legend:
[1] = test system: UTSCC-14 primary human tumour xenograft; assay: Anti-tumour activity in primary human tumour xenograft model (UTSCC-14, subcutaneous, nude mice); assay type: in vivo; conditions: for Tumour growth delay at 28 days: 2 cycles: daily for 5 days/2 days off
Description: Primary UTSCC-14 cell lines 3×10^6 were implanted subcutaneously in the flank of nude mice. Mice were randomized to 10 animals per group when the tumour volume was 100 to 150 mm^3. SU046-04 was given intraperitoneally at 12, 25 and 50 mg/Kg in PBS versus versus vehicle alone for 2 cycles: daily for 5 days/2 days off. Tumour volume was measured every 4 days using calipers. […] Tumour growth delay at 28 days was 31% at 12 mg/Kg, 56% at 25 mg/Kg, and 90% at 50 mg/Kg with 4/10 complete responses.

[2] = target: T1, CYP1B1 (Homo sapiens, UniProt Q16678); assay: CYP1B1 substrate prediction model (Gaussian Kernel weighted k-NN)
T1 sequence (Q16678 1-543): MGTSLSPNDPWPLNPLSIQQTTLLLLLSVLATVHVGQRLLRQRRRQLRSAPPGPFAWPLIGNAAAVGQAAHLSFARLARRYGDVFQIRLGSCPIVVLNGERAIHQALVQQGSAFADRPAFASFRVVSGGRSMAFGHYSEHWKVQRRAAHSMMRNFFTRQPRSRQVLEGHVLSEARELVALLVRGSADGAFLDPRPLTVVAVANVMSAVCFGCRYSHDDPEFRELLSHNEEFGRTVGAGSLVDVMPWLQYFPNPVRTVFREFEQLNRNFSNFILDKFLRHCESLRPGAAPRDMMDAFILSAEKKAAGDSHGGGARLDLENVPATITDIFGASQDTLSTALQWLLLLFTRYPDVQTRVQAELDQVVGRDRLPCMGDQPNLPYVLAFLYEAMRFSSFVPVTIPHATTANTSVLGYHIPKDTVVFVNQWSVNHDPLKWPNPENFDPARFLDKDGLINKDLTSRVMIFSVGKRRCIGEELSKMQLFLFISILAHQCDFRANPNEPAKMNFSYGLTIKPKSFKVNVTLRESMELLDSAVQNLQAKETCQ

[3] = target: T2, CYP1A1 (Homo sapiens, UniProt P04798); assay: Fragmentation of benzofuran ether and carbamate linked coumarins by Supersomal CYP1A1 (coumarin anion release, kinetic fluorimetry); assay type: biochemical; set-up: purchased BD Gentest, Oxford, UK; conditions: 10 pmol enzyme, 10 μmol dm^−3 prodrug, NADPH, pH 7.4, 37° C., mean ± standard deviation of three measurements
T2 sequence (P04798 1-512): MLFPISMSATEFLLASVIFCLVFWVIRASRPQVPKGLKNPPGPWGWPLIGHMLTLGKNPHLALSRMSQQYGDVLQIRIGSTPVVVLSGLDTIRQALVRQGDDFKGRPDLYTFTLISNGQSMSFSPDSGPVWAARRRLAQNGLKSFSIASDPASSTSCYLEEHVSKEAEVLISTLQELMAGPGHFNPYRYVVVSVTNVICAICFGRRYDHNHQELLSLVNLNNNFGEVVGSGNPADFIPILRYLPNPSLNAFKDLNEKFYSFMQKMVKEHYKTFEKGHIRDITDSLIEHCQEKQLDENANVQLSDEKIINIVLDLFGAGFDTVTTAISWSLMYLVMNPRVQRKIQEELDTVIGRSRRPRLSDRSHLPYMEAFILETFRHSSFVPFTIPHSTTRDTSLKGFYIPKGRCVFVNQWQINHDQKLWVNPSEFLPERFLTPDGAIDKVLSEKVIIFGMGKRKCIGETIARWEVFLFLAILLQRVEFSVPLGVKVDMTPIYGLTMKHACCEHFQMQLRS
Description: (§1) Supersomal™ enzyme metabolism was started by adding a stock solution of prodrug dissolved in DMSO to give a final concentration of 10 μmol dm^−3 prodrug and 0.5% DMSO. HLM screening used 60 microliter microsomes, 100 μmol dm^−3 NADPH, in 10 mmol dm^−3 potassium phosphate buffer at pH 7.4 and 37 OC, in 1.5 ml total reaction volume.
(§2) Therefore, enzymatic hydroxylation of the hetero-aromatic trigger and resultant linker fragmentation can be monitored in real time by release of the coumarin anion by kinetic fluorimetry.
(§3) Release of the coumarin anion indicative of linker fragmentation was monitored using a 1 cm path length fluorescence cell in a Cary Eclipse kinetic flourimeter with excitation and emission slits set at 5 nm. Coumarin anion release from compounds of the invention was detected at the excitation wavelength λex=350·nm and the emission wavelength λem=450 nm. Change in fluorescence intensity was quantified against a linear calibration plot of fluorescence intensity versus coumarin concentration (0 to 3.5 μmol dm^−3) in 10 mmol dm^−3 potassium phosphate buffer at pH 7.4 using the same instrument settings as for enzyme metabolism.

[4] = test system: human liver microsomes (HLM); assay: Fragmentation of benzofuran ether and carbamate linked coumarins by pooled human liver microsomes (coumarin anion release); conditions: for Specific fragmentation activity, HLM: 60 μl HLM in 1.5 ml final reaction volume, NADPH, pH 7.4, mean ± standard deviation of three measurements
Description: as §1, §2, §3

[5] = target: T3, CYP1A2 (Homo sapiens, UniProt P05177); assay: Fragmentation of benzofuran ether and carbamate linked coumarins by Supersomal CYP1A2 (coumarin anion release, kinetic fluorimetry); assay type: biochemical; conditions: 10 pmol enzyme, 10 μmol dm^−3 prodrug, NADPH, pH 7.4, 37° C., mean ± standard deviation of three measurements
T3 construct: purchased BD Gentest, Oxford, UK
T3 sequence (P05177 2-516 limits assumed): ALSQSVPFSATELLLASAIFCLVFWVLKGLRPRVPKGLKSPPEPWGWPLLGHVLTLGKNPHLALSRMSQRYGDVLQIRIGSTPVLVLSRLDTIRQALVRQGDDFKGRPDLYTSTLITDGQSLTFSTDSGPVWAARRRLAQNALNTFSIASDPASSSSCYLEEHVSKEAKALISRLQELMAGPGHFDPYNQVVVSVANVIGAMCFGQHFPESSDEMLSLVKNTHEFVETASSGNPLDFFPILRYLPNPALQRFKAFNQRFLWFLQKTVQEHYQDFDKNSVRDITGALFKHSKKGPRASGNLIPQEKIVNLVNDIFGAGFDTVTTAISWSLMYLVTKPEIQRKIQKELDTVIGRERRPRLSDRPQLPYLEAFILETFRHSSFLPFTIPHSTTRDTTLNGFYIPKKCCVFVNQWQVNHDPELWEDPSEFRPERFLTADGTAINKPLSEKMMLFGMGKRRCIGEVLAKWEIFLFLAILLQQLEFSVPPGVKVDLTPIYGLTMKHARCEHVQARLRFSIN
Description: as §1, §2, §3

[6] = target: T1, CYP1B1; assay: Fragmentation of benzofuran ether and carbamate linked coumarins by Supersomal CYP1B1 (coumarin anion release, kinetic fluorimetry); assay type: biochemical; set-up: purchased BD Gentest, Oxford, UK; conditions: 10 pmol enzyme, 10 μmol dm^−3 prodrug, NADPH, pH 7.4, 37° C., mean ± standard deviation of three measurements
Description: as §1, §2, §3

| Compound | % CYP1B1 substrate inhibition, accuracy (predicted versus actual) [2] [%] | Specific fragmentation activity, HLM [4] | Specific fragmentation activity, CYP1A2 [5] | further results |
| --- | --- | --- | --- | --- |
| COc1cc(OC)c2oc(COP(=O)(NCCBr)NCCBr)cc2c1 [SU046-04] | 96 | – | – | Tumour growth delay at 28 days ([1]; 12 mg/Kg intraperitoneally): 31%; Tumour growth delay at 28 days ([1]; 25 mg/Kg intraperitoneally): 56%; Tumour growth delay at 28 days ([1]; 50 mg/Kg intraperitoneally): 90%; Complete responses ([1]; 50 mg/Kg intraperitoneally, 10 animals per group): 4/10; Adverse effects and body weight loss ([1]; after highest exposure 250 mg/Kg): No observed adverse effects or significant body weight loss; Tumour growth compared to the vehicle alone ([1]; all three treatment arms: 12, 25 and 50 mg/Kg intraperitoneally): significant inhibition of tumour growth |
| Nc1ccc(S(=O)(=O)Nc2ccnn2-c2ccccc2)cc1 [sulfaphenazole] | 68 | – | – | – |
| Cc1cc(=O)oc2cc(OCc3cc4ccccc4o3)ccc12 [SU010A, 7-(benzofuran-2-ylmethoxy)-4-methyl-2H-chromen-2-one] | – | – | – | Specific fragmentation activity, CYP1A1 ([3]; listed as SU10A): fragmented; Specific fragmentation activity, HLM ([4]; listed as SU10A): fragmented; Specific fragmentation activity, CYP1A2 ([5]; listed as SU10A): fragmented; Specific fragmentation activity, CYP1B1 ([6]; listed as SU10A): fragmented |
| Oc1ccc(C=Cc2cc(O)cc(O)c2)cc1 [resveratrol] | 95 | – | – | – |
| COc1cc(OC)c2oc(COC(=O)Nc3ccc4c(C)cc(=O)oc4c3)cc2c1 [VG041-05, (5,7-dimethoxybenzofuran-2-yl)methyl 4-methyl-2-oxo-2H-chromen-7-ylcarbamate] | – | no release | no release | Specific fragmentation activity, CYP1B1 [6]: not CYP1A2 or CYP1B1; also recorded: no release |
| COc1ccc2oc(COC(=O)Nc3ccc4c(C)cc(=O)oc4c3)cc2c1 [VG032-05, (5-methoxybenzofuran-2-yl)methyl 4-methyl-2-oxo-2H-chromen-7-ylcarbamate] | – | – | no release | – |
| Cc1cc(=O)oc2cc(NC(=O)OCc3cc4cc(Br)ccc4o3)ccc12 [VG036-05, (5-bromobenzofuran-2-yl)methyl 4-methyl-2-oxo-2H-chromen-7-ylcarbamate] | – | no release | no release | Specific fragmentation activity, CYP1A1 [3]: no release; Specific fragmentation activity, CYP1B1 [6]: no release |
| C[C@]12CC[C@@H]3c4ccc(O)cc4CC[C@H]3[C@@H]1CC[C@@H]2O [β-estradiol] | 95 | – | – | – |
| C=C[C@H]1C[N@@]2CC[C@H]1C[C@@H]2[C@@H](O)c1ccnc2ccc(OC)cc12 [quinidine] | 64 | – | – | – |
| COc1cc(OC)c2oc(COc3ccc4c(C)cc(=O)oc4c3)cc2c1 [VG035-05, 7-((5,7-dimethoxybenzofuran-2-yl)methoxy)-4-methyl-2H-chromen-2-one] | 96 | no linker fragmentation; also recorded: no release | no linker fragmentation; also recorded: no release | Specific fragmentation activity, CYP1A1 [3]: no linker fragmentation; also recorded: no release |
| Cc1cc(=O)oc2cc(OCc3cc4cc(F)cc(F)c4o3)ccc12 [VG016-05, 7-((5,7-difluorobenzofuran-2-yl)methoxy)-4-methyl-2H-chromen-2-one] | 82 | no release | no release | Specific fragmentation activity, CYP1A1 [3]: no release; Specific fragmentation activity, CYP1B1 [6]: no fragmentation of the linker; also recorded: no release; Specific fragmentation activity, CYP1B1 ([6]; listed as VG016-04): inhibits CYP1 isoenzyme and HLM-induced fragmentation |
| Cc1cc(=O)oc2cc(NC(=O)OCc3cc4ccccc4o3)ccc12 [SU018-03, benzofuran-2-ylmethyl 4-methyl-2-oxo-2H-chromen-7-ylcarbamate] | – | no release | no release | Specific fragmentation activity, CYP1B1 [6]: no release |
| COc1cc(OC)c2oc(COP(=O)(NCCCl)NCCCl)cc2c1 [SU025-04] | 96 | – | – | – |
| O=c1cc(-c2ccccc2)oc2c1ccc1ccccc12 [α-napthoflavone, α-naphthoflavone, reference compound] | – | – | – | Effect of α-naphthoflavone on HLM-mediated SU10A fragmentation (coumarin release) ([4]; HLM, inclusion of 10 μmol dm^−3 α-naphthoflavone): inhibits SU10A fragmentation |
| CCOc1ccc2nc3ccc(=O)cc-3oc2c1 [ethoxyresorufin, 7-ethoxyresorufin] | 95 | – | – | – |
